In patent publication EP3572468B1, “CYANINE DYES AND THEIR USAGE FOR IN VIVO STAINING OF MICROORGANISMS” (PHILIPPS-UNIVERSITÄT MARBURG, priority 2018, dated 2019):
Entries after “also recorded” stand apart in the source; their conditions may differ.

Legend:
[1] = test system: antibiotic-resistant Klebsiella pneumoniae (K. pneumoniae); type: cell-based; settings: 2.5 µM dye
Method: (§1) Escherichia coli (E. coli) NEB5α (New England Biolabs) and antibiotic-resistant and -sensitive Klebsiella pneumoniae (K. pneumoniae) were cultured in Luria-Bertani (LB) solid medium (LB-Agar) overnight at 37°C. The source of the K. pneumoniae strands is of no relevance to the invention. The invention may be applied to all types of microorganisms (bacteria, viri, fungi etc.) or other cells, either contained within a sample or isolated from a sample. For staining, growth curve analysis and replating experiments bacteria were suspended in LB liquid medium at an OD600 nm of 1.0 and 800 µL were transferred into a culture tube containing 7.2 mL of LB liquid medium supplemented with DMSO or candidate dyes (2.5 µM) final concentration). Density of bacterial cultures was measured using an Ultrospec 10 Cell Density Meter with 600 nm LED source (Amersham Biosciences). […]
(§2) Bacteria and macrophages were washed with PBS prior to flow cytometry and analysed using a Guava easyCyte flow cytometer (Millipore). FCS3.0 files were analysed using Flowing Software (http://flowingsoftware.btk.fi/). Cells were first gated in the forward- / side-scatter plot to exclude debries, followed by quadrant gating in plots using the fluorescence channels as shown above. […] Propidium iodide signal was recorded in the yellow channel.

[2] = test system: primary human macrophages; assay: Uptake of 6-TramTO-3-labeled bacteria by macrophages (co-culture, FACS); type: cell-based; settings: multiplicity of infection of 20
Method: For primary human macrophage cultures buffy coats from blood donations were loaded onto Lymphoprep™ gradient medium (Fresenius Kabi) followed by centrifugation. The peripheral blood mononuclear cell band was isolated from the gradient and monocytes were enriched using CD14 MACS beads (Miltenyi) according to the manufacturer's instructions. To differentiate monocytes into macrophages cells were cultured in 6-well plates (800.000 cells/mL) in 2 mL X-Vivo 15 medium (Lonza) supplemented with 5 % fetal bovine serum (Biochrom) and 15 ng/mL recombinant human GM-CSF (Preprotech). On day 7 macrophages were considered terminally differentiated and treated with stained bacteria. To this end bacteria stained as described above were sampled at an OD600 nm = 2.0 and washed five times with phosphate buffered saline (PBS). After the last wash bacteria were brought to an OD600 nm of 2.0 and 16 µL, equivalent to 16.000.000 bacteria were added to each well to achieve a multiplicity of infection of 20. Culture plates were then centrifuged for 10 min at 250 G and 37°C to establish physical contact between macrophages and bacteria. Subsequently, culture plates were transferred back into a 37°C incubator with CO2 atmosphere for the remainder of the stimulation period.
(§3) Bacteria and macrophages were washed with PBS prior to flow cytometry and analysed using a Guava easyCyte flow cytometer (Millipore). FCS3.0 files were analysed using Flowing Software (http://flowingsoftware.btk.fi/). Cells were first gated in the forward- / side-scatter plot to exclude debries, followed by quadrant gating in plots using the fluorescence channels as shown above. For discrimination of live/dead cell discrimination cells in PBS were supplemented with 0.4 µL/mL propidium-iodide (5 mg/ml solution) followed by 5 min incubation on ice. Propidium iodide signal was recorded in the yellow channel.

[3] = test system: Escherichia coli (E. coli) NEB5α; assay: Bacteria culture and staining: growth and FACS labeling of E. coli; type: cell-based
Method: Escherichia coli (E. coli) NEB5α (New England Biolabs) and antibiotic-resistant and -sensitive Klebsiella pneumoniae (K. pneumoniae) were cultured in Luria-Bertani (LB) solid medium (LB-Agar) overnight at 37°C. The source of the K. pneumoniae strands is of no relevance to the invention. The invention may be applied to all types of microorganisms (bacteria, viri, fungi etc.) or other cells, either contained within a sample or isolated from a sample. For staining, growth curve analysis and replating experiments bacteria were suspended in LB liquid medium at an OD600 nm of 1.0 and 800 µL were transferred into a culture tube containing 7.2 mL of LB liquid medium supplemented with DMSO or candidate dyes (2.5 µM) final concentration). Density of bacterial cultures was measured using an Ultrospec 10 Cell Density Meter with 600 nm LED source (Amersham Biosciences). For bacterial re-plating experiments bacteria were sampled at OD600 nm = 2.0 and 5 µL of indicated dilutions in LB-medium were spotted onto LB-agar plates (Fig. 5) or 100 µL were plated onto LB-agar plates followed by incubation at 37°C until colonies became visible.
as §3

[4] = test system: antibiotic-sensitive Klebsiella pneumoniae (K. pneumoniae); assay: Bacteria culture and staining: growth and FACS labeling of sensitive K. pneumoniae; type: cell-based; settings: 2.5 µM dye
Method: as §1, §2

[5] = Molar extinction coefficient determination; type: physicochemical; settings: in milli-Q water; absorbance maximum at 625 nm
Method: The concentration determination and measurement of full UV-Vis spectra were performed on a Tecan 20M at room temperature. The measurements were performed in a 1400 µL quarz cuvette with a pathlength of 1 cm in a volume of 1 mL.
For the accurate determination of our compounds 6-TramTO-3 the extinction coefficient was calculated. A specific amount (< 2.00 mg) of the compound was weighted on a Mettler Toledo XP6 and dissolved in a known amount of milli-Q water. Increasing amounts of such stock solution were added into a 1 mL cuvette filled with 1 ml of milli-Q water. The corresponding absorbance of each addition was measured on a Tecan Spark 20M at the maximum at 625 nm and without exceeding 10% of the initial volume. In all the cases the absorbance was between 0.1 and 1 AU. to be in concordance with Lambert-Beer law (equation E2). A = ε l c [formula]
In this equation (E2): A = absorbance of the solution; I = length of the cuvette; c = concentration; ε = molar extinction coefficient.
The lineal regression of the obtained absorbance measurements versus the concentrations of 6-TramTO-3 allowed us to obtain the molar extinction coefficient. These measurements were repeated three times independently i.e. from three different stock solutions. The mean extinction coefficient and the standard deviation of 6-TramTO-3 at a wavelength of 625 nm in milli-Q water was 59403 ±646 M^-1cm^-1.
The mean extinction coefficient and the standard deviation of 6-NH2TO-3 and 6-AzTO-3 were determined following the above described procedure. The extinction coefficient of 6-NH2TO-3 was determined in milli-Q water, whereas the extinction coefficient of 6-AzTO-3 was determined in DMSO due to its low aqueous solubility. […] For the spectrum of 6-AzTO-3 1% of DMSO was added for a better solubility. Fig. 20 and Fig. 21 show the linear regressions from the three independent measurements. Table 4 summarized the molar extinction coefficient obtained. Table 4: Determined mean extinction coefficients and standard deviations of 6-AzTO-3 in DMSO and 6-TramTO-3 and 6-NH2TO-3 in milli-Q water.

## CC[n+]1ccc(/C=C/C=C2\Sc3ccccc3N2CCCCCCn2cc(CN)nn2)c2ccccc21.[I-] [6-TramTO-3, 4-((1E,3Z)-3-(3-(6-(4-(aminomethyl)-1H-1,2,3-triazol-1-yl)hexyl)benzo[d]thiazol-2(3H)-ylidene)prop-1-en-1-yl)-1-ethylquinolin-1-ium iodide]
[1]
  bacterial growth in presence of dye: grew normally
[1]; OD600 = 2.0
  fluorescent labeling of live bacteria (FACS): successfully fluorescently labeled
[2]; macrophages exposed to 6-TramTO-3-labeled E. coli
  red-shift of the macrophages (bacterial uptake): ~ 26%
[2]; macrophages exposed to 6-TramTO-3-labeled antibiotic sensitive Klebsiella strain
  macrophages that took up bacteria (red-shifted): ~ 0.2%
[2]; macrophages exposed to 6-TramTO-3-labeled antibiotic-resistant Klebsiella strain
  macrophages that took up bacteria (red-shifted): ~ 4%
[3]; 2.5 µM dye in LB medium, OD600 over time, liquid and solid medium
  bacterial growth in presence of dye: fully compatible with normal bacterial growth; also recorded: grew normally
[3]; 2.5 µM dye in culture medium, FACS at mid-exponential growth phase (OD600 = 2.0)
  fluorescent labeling of live bacteria (FACS): successfully fluorescently labeled
[4]
  bacterial growth in presence of dye: grew normally
[4]; OD600 = 2.0
  fluorescent labeling of live bacteria (FACS): successfully fluorescently labeled
[5]
  mean extinction coefficient: 59403 ± 646 M⁻¹ cm⁻¹
